Publication PMC8752738, “A propolis-derived small molecule ameliorates metabolic syndrome in obese mice by targeting the CREB/CRTC2 transcriptional complex” (Nature Communications, 2022)
Where “and” joins values, the source holds several entries; their conditions need not be identical. Equal entries are not always repeated.

System: tissue mRNA levels
Assay: Quantitative PCR of tissue gene expression in treated mice
Type: in vivo, mouse
Parameters: key to mRNA levels Scap / mRNA levels Insig1 / mRNA levels Ldlr / mRNA levels Mttp / mRNA levels Atgl / mRNA levels Tnfaip2 / mRNA levels Rxra / mRNA levels Srebf1 / mRNA levels Ucp2: mRNA level normalized to ribosomal L32 mRNA (internal control)
Settings: for relative mRNA levels SREBP1a, group mean (Mean 2) / relative mRNA levels SREBP2, group mean (Mean 2) / relative mRNA levels SREBP1c, group mean (Mean 2) / relative mRNA levels Srebf-1a / relative mRNA levels Srebf-1c / relative mRNA levels Srebf-2: Figure 6a; for relative mRNA levels SREBP1a, group mean (Mean 2) / relative mRNA levels SREBP2, group mean (Mean 2) / relative mRNA levels SREBP1c, group mean (Mean 2): N=6; for relative mRNA levels SREBP1a, group mean (Mean 2): VEH mean 0.9485; for relative mRNA levels SREBP2, group mean (Mean 2): VEH mean 1.001; for relative mRNA levels SREBP1c, group mean (Mean 2): VEH mean 1.004; for relative mRNA levels Srebf-1a / relative mRNA levels Srebf-1c / relative mRNA levels Srebf-2: relative to VEH
Method: Total RNA from cells and tissues was extracted by Trizol (Invitrogen) and reverse-transcribed into cDNA using the prime script RT reagent kit with gDNA eraser (Takara). The mRNA levels were determined using the SYBR-green PCR kit (Takara) with ABIPRISM 7900HT Sequence detector (ABI) according to the manufacturer’s protocol. The quantitative qPCR primers used in this work are listed in Supplementary Table 1. Ribosomal L32 mRNA levels were used as an internal control.

[1] = DIO mice, i.p. 20 mg/kg, 5 weeks
[2] = APC 10mg/kg, individual animals
[3] = APC 20mg/kg, individual animals
[4] = Figure 6c, liver of DIO mice, individual animals

## CC(C)=CCc1cc(C=CC(=O)O)cc(CC=C(C)C)c1O [APC, 3,5-diprenyl-4-hydroxycinnamic acid]
C57 WT mice, one oral dose 20 mg/kg
  mRNA levels of CREB/CRTC2 regulated genes in muscle, brain, spleen, kidney, small intestine, pancreas: did not significantly affect
CRTC2KO mice, Met 200mg/kg or APC-20
  Mean Diff. (Veh. vs. treated; head of the quantity not shown, section just before Figure 7h): -0.1036
DIO and db/db mice, i.p. 20 mg/kg, 5 weeks
  hepatic mRNA levels of G6pc, Pck1 and Pgc-1α: remarkably reduced
DIO mice
  Pgc-1α and Pgc-1β expression in liver, white and brown adipose tissues: significantly reduced
  hepatic mRNA levels of SREBP target genes: reduced
[1]
  liver mRNA levels of Lxra: decreased
  liver mRNA levels of Pparα, Pparγ and Rxrα: little effect
DIO mice, i.p. 5 weeks
  hepatic mRNA levels of Srebp-1a, 1c and 2: significantly decreased
APC 10mg/kg
  relative mRNA levels SREBP1a, group mean (Mean 2): 0.6192
  relative mRNA levels SREBP2, group mean (Mean 2): 0.7198
  relative mRNA levels SREBP1c, group mean (Mean 2): 0.5199
[2]
  relative mRNA levels Srebf-1a: 0.7632 and 0.606 and 0.6752 and 0.5408 and 0.5316 and 0.5987
  relative mRNA levels Srebf-1c: 0.3899 and 0.7333 and 0.3575 and 0.4477 and 0.6292 and 0.5618
  relative mRNA levels Srebf-2: 0.89 and 0.7028 and 0.7151 and 0.6142 and 0.6241 and 0.7725
APC 20mg/kg
  relative mRNA levels SREBP1a, group mean (Mean 2): 0.576
  relative mRNA levels SREBP2, group mean (Mean 2): 0.6534
  relative mRNA levels SREBP1c, group mean (Mean 2): 0.4898
[3]
  relative mRNA levels Srebf-1a: 0.7402 and 0.4743 and 0.5973 and 0.6221 and 0.5888 and 0.4336
  relative mRNA levels Srebf-1c: 0.4905 and 0.5691 and 0.5139 and 0.3623 and 0.4504 and 0.5527
  relative mRNA levels Srebf-2: 0.7803 and 0.8192 and 0.5739 and 0.6729 and 0.5114 and 0.5627
Figure 6c, liver of DIO mice, group mean, Mean of VEH 0.9497
  mRNA levels Pgc-1a, Mean of APC: 0.7169
Figure 6c, liver of DIO mice, group mean, Mean of VEH 0.9581
  mRNA levels Hmgcs, Mean of APC: 0.6963
Figure 6c, liver of DIO mice, group mean, Mean of VEH 0.9596
  mRNA levels Pgc-1b, Mean of APC: 0.6511
Figure 6c, liver of DIO mice, group mean, Mean of VEH 0.9821
  mRNA levels Acl, Mean of APC: 0.5548
Figure 6c, liver of DIO mice, group mean, Mean of VEH 0.983
  mRNA levels Insig1, Mean of APC: 1.256
Figure 6c, liver of DIO mice, group mean, Mean of VEH 0.9914
  mRNA levels Ldlr, Mean of APC: 0.5526
Figure 6c, liver of DIO mice, group mean, Mean of VEH 0.9918
  mRNA levels ApoE, Mean of APC: 0.7552
Figure 6c, liver of DIO mice, group mean, Mean of VEH 0.995
  mRNA levels Acsl1, Mean of APC: 0.6996
Figure 6c, liver of DIO mice, group mean, Mean of VEH 1.003
  mRNA levels Insig2b, Mean of APC: 1.315
Figure 6c, liver of DIO mice, group mean, Mean of VEH 1.007
  mRNA levels Lxra, Mean of APC: 0.5396
Figure 6c, liver of DIO mice, group mean, Mean of VEH 1.031
  mRNA levels Cel, Mean of APC: 2.279
Figure 6c, liver of DIO mice, group mean, Mean of VEH 1.033
  mRNA levels Acc, Mean of APC: 0.6639
Figure 6c, liver of DIO mice, group mean, Mean of VEH 1.034
  mRNA levels Pcsk9, Mean of APC: 0.8062
Figure 6c, liver of DIO mice, group mean, Mean of VEH 1.037
  mRNA levels Cpt1, Mean of APC: 2.106
Figure 6c, liver of DIO mice, group mean, Mean of VEH 1.041
  mRNA levels Mttp, Mean of APC: 0.553
Figure 6c, liver of DIO mice, group mean, Mean of VEH 1.044
  mRNA levels Scd1, Mean of APC: 1.532
Figure 6c, liver of DIO mice, group mean, Mean of VEH 1.051
  mRNA levels Lipg, Mean of APC: 1.548
Figure 6c, liver of DIO mice, group mean, Mean of VEH 1.052
  mRNA levels ApoB, Mean of APC: 0.8089
Figure 6c, liver of DIO mice, group mean, Mean of VEH 1.059
  mRNA levels Hmgcl, Mean of APC: 0.5112
Figure 6c, liver of DIO mice, group mean, Mean of VEH 1.06
  mRNA levels Scap, Mean of APC: 0.7595
Figure 6c, liver of DIO mice, group mean, Mean of VEH 1.072
  mRNA levels Mgll, Mean of APC: 1.87
Figure 6c, liver of DIO mice, group mean, Mean of VEH 1.142
  mRNA levels Fasn, Mean of APC: 0.5649
[4]
  mRNA levels Acc: 0.6012 and 0.6553 (2×) and 0.7255 and 0.7608 and 0.5855
  mRNA levels Acl: 0.303 and 0.3204 and 0.7174 and 0.7065 and 0.7574 and 0.524
  mRNA levels Acsl1: 0.5351 and 0.5673 and 0.8699 and 0.7501 and 0.6417 and 0.8334
  mRNA levels ApoB: 0.8489 and 0.8438 and 0.8351 and 0.7306 and 0.803 and 0.7922
  mRNA levels ApoE: 0.7234 and 0.6714 and 0.8902 and 0.7927 and 0.794 and 0.6594
  mRNA levels Cel: 1.61 and 1.758 and 2.648 and 2.653 and 2.573 and 2.434
  mRNA levels Cpt1: 2.1427 and 2.6 and 2.578 and 1.766 and 1.996 and 1.554
  mRNA levels Fasn: 0.5582 and 0.6145 and 0.8825 and 0.8943 and 0.221 and 0.219
  mRNA levels Hmgcl: 0.8031 and 0.3302 and 0.7226 and 0.5347 and 0.468 and 0.2089
  mRNA levels Hmgcs: 0.6002 and 0.7721 and 0.6122 and 0.7412 and 0.7304 and 0.7219
  mRNA levels Insig1: 1.154 and 1.297 and 1.198 and 1.324 and 1.22 and 1.341
